Assay results: ChEMBL document CHEMBL6115057, “Discovery and Optimization of a Covalent AKR1C3 Inhibitor” (J Med Chem, 2025)
Numbering of substitutions follows the chain as printed. pIC50: −log10 of the molar value. Activity calls are given as the source filed them. The calls are words filed in the database; no cut-off is given here.

Tests used:
[1] = target: T1, Aldo-keto reductase family 1 member C3 (Homo sapiens, UniProt P42330); test: Inhibition of AKR1C3 in human COLO 205 cells by Cell based AKR activity assay
T1 sequence (P42330 whole entry): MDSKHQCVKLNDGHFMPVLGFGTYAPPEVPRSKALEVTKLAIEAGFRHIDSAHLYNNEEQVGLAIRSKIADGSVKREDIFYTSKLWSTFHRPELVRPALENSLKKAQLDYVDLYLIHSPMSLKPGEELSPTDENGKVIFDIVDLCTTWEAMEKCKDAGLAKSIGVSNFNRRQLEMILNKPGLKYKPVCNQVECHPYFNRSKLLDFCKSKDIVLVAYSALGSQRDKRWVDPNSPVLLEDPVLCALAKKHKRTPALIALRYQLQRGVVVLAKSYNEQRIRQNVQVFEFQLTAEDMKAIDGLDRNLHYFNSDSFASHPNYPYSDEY

[2] = target: T2, Aldo-keto reductase family 1 member C3 (Homo sapiens) (UniProt P42330); test: Binding affinity to AKR1C3 in human COLO 205 cells assessed as interaction at Y24/Y55 at 100 uM measured after 4 hrs; format: cell-based
T2 sequence (whole entry): T1 sequence (P42330 whole entry)

Homo sapiens [3] = organism: Homo sapiens; test: Selectivity ratio, ratio of IC50 for AKR1C2 (unknown origin) to AKR1C3 (unknown origin)
[4] = target: T3, Aldo-keto reductase family 1 member C4 (Homo sapiens, UniProt P17516); test: Inhibition of AKR1C4 (unknown origin) in human HEK293T cells assessed as turnover of coumberone to coumberol by live cell coumberone reduction assay; format: cell-based
T3 sequence (P17516 whole entry): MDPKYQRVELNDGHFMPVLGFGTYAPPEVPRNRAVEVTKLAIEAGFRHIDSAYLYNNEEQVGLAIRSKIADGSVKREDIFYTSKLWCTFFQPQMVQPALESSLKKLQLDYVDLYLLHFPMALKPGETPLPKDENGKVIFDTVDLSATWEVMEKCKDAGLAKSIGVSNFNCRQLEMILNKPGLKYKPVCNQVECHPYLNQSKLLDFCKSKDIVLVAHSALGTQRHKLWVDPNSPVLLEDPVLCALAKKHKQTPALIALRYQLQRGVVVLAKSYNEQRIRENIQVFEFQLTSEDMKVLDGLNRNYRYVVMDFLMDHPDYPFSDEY

[5] = target: T4, Aldo-keto reductase family 1 member C1 (Homo sapiens) (UniProt Q04828); test: Inhibition of RJG-2121 probe labelling of AKR1C1 (unknown origin) expressed in human HEK293T cells in presence of CuAAC measured by Gel-Based (competitive ABPP) Chemical Proteomics Assay; format: cell-based; conditions: time 5-120 min
T4 sequence (whole entry): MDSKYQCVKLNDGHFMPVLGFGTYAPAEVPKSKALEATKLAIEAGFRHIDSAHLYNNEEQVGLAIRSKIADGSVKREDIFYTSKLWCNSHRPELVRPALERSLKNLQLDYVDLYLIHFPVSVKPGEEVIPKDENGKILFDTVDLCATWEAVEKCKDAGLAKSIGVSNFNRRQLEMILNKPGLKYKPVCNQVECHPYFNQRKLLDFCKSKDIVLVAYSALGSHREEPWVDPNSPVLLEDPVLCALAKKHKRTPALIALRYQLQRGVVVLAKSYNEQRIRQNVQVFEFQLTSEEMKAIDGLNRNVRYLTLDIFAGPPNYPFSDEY

[6] = target: Aldo-keto reductase family 1 member B10 (Homo sapiens) (UniProt O60218); test: Binding affinity to AKR1B10 in human live COLO 205 cells assessed as interaction at Y49 by measuring competition ratio at 10 uM measured after 2 hrs relative to control; format: cell-based
Chain of Aldo-keto reductase family 1 member B10 (Homo sapiens) (O60218 whole entry, looked up): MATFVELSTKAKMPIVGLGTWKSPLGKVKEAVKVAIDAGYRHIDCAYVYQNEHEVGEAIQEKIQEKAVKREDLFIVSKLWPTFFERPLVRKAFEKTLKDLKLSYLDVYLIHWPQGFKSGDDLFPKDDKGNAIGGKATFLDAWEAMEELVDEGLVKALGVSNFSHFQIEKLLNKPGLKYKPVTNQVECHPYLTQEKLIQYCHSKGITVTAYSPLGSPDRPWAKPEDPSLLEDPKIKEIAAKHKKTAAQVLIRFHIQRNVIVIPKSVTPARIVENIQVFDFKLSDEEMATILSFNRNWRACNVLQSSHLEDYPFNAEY

Homo sapiens [7] = organism: Homo sapiens; test: Selectivity ratio, ratio of IC50 for AKR1C4 (unknown origin) to AKR1C3 (unknown origin)
[8] = target: T5, Aldo-keto reductase family 1 member C2 (Homo sapiens, UniProt P52895); test: Inhibition of AKR1C2 (unknown origin) in human HEK293T cells assessed as turnover of coumberone to coumberol by live cell coumberone reduction assay; format: cell-based
T5 sequence (P52895 whole entry): T4 sequence (whole entry) with T38V, R47H, L54V, C87S, V151M, R170H, Q172L

Homo sapiens [9] = organism: Homo sapiens; test: Selectivity ratio, ratio of IC50 for AKR1C1 (unknown origin) to AKR1C3 (unknown origin)
[10] = target: T4, Aldo-keto reductase family 1 member C1 (Homo sapiens); test: Binding affinity to AKR1C1 in human live COLO 205 cells assessed as interaction at Y24/T126 by measuring competition ratio at 10 uM measured after 2 hrs relative to control; format: cell-based
[11] = target: T2, Aldo-keto reductase family 1 member C3 (Homo sapiens); test: Inhibition of TMT-SuTex labelling of AKR1C3 in human live COLO 205 cells assessed as competition ratio at 10 uM measured after 2 hrs relative to control; format: cell-based
[12] = target: T2, Aldo-keto reductase family 1 member C3 (Homo sapiens); test: Inhibition of RJG-2121 probe labelling of AKR1C3 in human COLO 205 cells in presence of CuAAC Gel-Based (competitive ABPP) Chemical Proteomics Assay; format: cell-based
[13] = target: T2, Aldo-keto reductase family 1 member C3 (Homo sapiens); test: Binding affinity to AKR1C3 in human live COLO 205 cells assessed as interaction at Y24 at 10 uM measured after 2 hrs; format: cell-based
[14] = target: T2, Aldo-keto reductase family 1 member C3 (Homo sapiens); test: Binding affinity to AKR1C3 in human live COLO 205 cells assessed as interaction at Y272 by measuring competition ratio at 10 uM measured after 2 hrs relative to control; format: cell-based
[15] = target: T6, Aldo-keto reductase family 1 member C1 (Homo sapiens, UniProt Q04828); test: Inhibition of AKR1C1 (unknown origin) in human HEK293T cells assessed as turnover of coumberone to coumberol by live cell coumberone reduction assay; format: cell-based
T6 sequence (Q04828 whole entry): T4 sequence (whole entry)

[16] = target: T2, Aldo-keto reductase family 1 member C3 (Homo sapiens); test: Inhibition of TMT-SuTex labelling of AKR1C3 in human live COLO 205 cells assessed as blockade of probe labelling at 10 uM measured after 2 hrs relative to control; format: cell-based
[17] = target: T4, Aldo-keto reductase family 1 member C1 (Homo sapiens); test: Inhibition of RJG-2121 probe labelling of AKR1C1 (unknown origin) expressed in human HEK293T cells in presence of CuAAC measured after 5 to 120 mins by Gel-Based (competitive ABPP) Chemical Proteomics Assay; format: cell-based; conditions: time 5-120 min
[18] = target: T2, Aldo-keto reductase family 1 member C3 (Homo sapiens); test: Inhibition of RJG-2121 probe labelling of AKR1C3 (unknown origin) expressed in human HEK293T cells in presence of CuAAC measured after 5 to 120 mins by Gel-Based (competitive ABPP) Chemical Proteomics Assay; format: cell-based; conditions: time 5-120 min
HEK293T = test: Inhibition of RJG-2121 probe labelling of AKR1C4 (unknown origin) expressed in human HEK293T cells in presence of CuAAC measured after 5 to 120 mins by Gel-Based (competitive ABPP) Chemical Proteomics Assay; format: cell-based; conditions: time 5-120 min
[19] = target: T7, Aldo-keto reductase family 1 member C2 (Homo sapiens) (UniProt P52895); test: Inhibition of RJG-2121 probe labelling of AKR1C2 (unknown origin) expressed in human HEK293T cells in presence of CuAAC measured after 5 to 120 mins by Gel-Based (competitive ABPP) Chemical Proteomics Assay; format: cell-based; conditions: time 5-120 min
T7 sequence (whole entry): T4 sequence (whole entry) with T38V, R47H, L54V, C87S, V151M, R170H, Q172L

[20] = target: T7, Aldo-keto reductase family 1 member C2 (Homo sapiens); test: Binding affinity to AKR1C2 in human COLO 205 cells assessed as interaction at Y55 at 100 uM measured after 4 hrs; format: cell-based
[21] = target: T4, Aldo-keto reductase family 1 member C1 (Homo sapiens); test: Binding affinity to AKR1C1 in human COLO 205 cells assessed as interaction at Y55 at 100 uM measured after 4 hrs; format: cell-based

In the case of COc1cccc(N2CCN(C(=O)c3ccc(S(=O)(=O)n4cncn4)cc3)CC2)c1, the pIC50 [1] was 6.27.
Work on O=C(Nc1ccc(-c2ccccc2OC(F)(F)F)cc1)c1ccc(S(=O)(=O)n2cncn2)cc1 yielded a pIC50 [1] of under 5.00.
With O=C(c1ccc(S(=O)(=O)n2cncn2)cc1)N1CCN(c2ccccn2)CC1 the pIC50 [1] was 5.59.
COc1ccccc1N1CCN(C(=O)c2ccc(S(=O)(=O)n3cnc(-c4ccccc4F)n3)cc2)CC1 gave a pIC50 [1] of 5.33.
Work on COc1ccccc1N1CCN(C(=O)c2ccc(S(=O)(=O)n3cnc(-c4ccncc4)n3)cc2)CC1 yielded a pIC50 [1] of 5.38.
In the case of C#CCNC(=O)c1ccc(S(=O)(=O)n2cnc(C3CC3)n2)cc1, the Activity [2] was “Active”.
Compound COc1ccccc1N1CCN(C(=O)c2cccc(S(=O)(=O)n3cnc(C4CCCCC4)n3)c2)CC1 has a pIC50 [1] of under 5.00.
Compound COc1ccc(N2CCN(C(=O)c3ccc(S(=O)(=O)n4cncn4)cc3)CC2)cc1 has a pIC50 [1] of 6.02.
With COc1ccccc1N1CCN(C(=O)c2ccc(S(=O)(=O)n3cnc(C4CCCCC4)n3)cc2)CC1 the Ratio IC50 (Homo sapiens [3]) was 1770, the pIC50 [4] was 5.22 and the pIC50 [1] was 7.57. For the same compound, the inhibition [5] was “Time-dependent-effect”, the Ratio [6] was 1 and the Ratio IC50 (Homo sapiens [7]) was 461. The pIC50 [8] was 4.64, the Ratio IC50 (Homo sapiens [9]) was 2380 and the Ratio [10] was 1. The Ratio [11] was 0.25, the inhibition [12] was “Dose-dependent-effect” and the Activity [13] was “Active”. For the same compound, the Ratio [14] was 1, the pIC50 [15] was 4.51 and the inhibition [16] was over 75%.
For COc1ccccc1N1CCN(C(=O)c2ccc(S(=O)(=O)n3cnc(-c4ccc(C(F)(F)F)cc4)n3)cc2)CC1, the pIC50 [1] was 6.03.
Work on COc1ccccc1N1CCN(C(=O)c2ccc(S(=O)(=O)n3cnc(-c4ccc(Br)cc4)n3)cc2)CC1 yielded a pIC50 [1] of 6.01.
COc1ccccc1N1CCN(C(=O)c2ccc(S(=O)(=O)n3cncn3)cc2)CC1 gave a pIC50 [1] of 5.62.
In the case of COc1ccccc1N1CCN(C(=O)c2ccc(S(=O)(=O)n3cnc(C4CCC4)n3)cc2)CC1, the pIC50 [1] was 7.21.
With COc1ccccc1N1CCN(C(=O)c2ccc(S(=O)(=O)n3cnc(C4CC4)n3)cc2)CC1 the pIC50 [1] was 7.06.
COc1ccccc1-c1ccc(NC(=O)c2ccc(S(=O)(=O)n3cncn3)cc2)cc1 showed a pIC50 [1] of 5.06.
For O=C(Nc1ccc(-c2ccccn2)cc1)c1ccc(S(=O)(=O)n2cncn2)cc1, the pIC50 [1] was under 5.00.
Work on NS(=O)(=O)c1ccc(-n2nc(CCCNC(=O)Nc3ccc(C(F)(F)F)cc3)cc2-c2ccccc2)cc1 yielded a pIC50 [1] of under 5.00.
For COc1ccccc1N1CCN(C(=O)c2cccc(S(=O)(=O)n3cncn3)c2)CC1, the inhibition [17] was “inactive”, the pIC50 [1] was under 5.00 and the inhibition [18] was “inactive”. The Activity [12] was “inactive”, the inhibition (HEK293T) was “inactive” and the inhibition [19] was “inactive”.
C#CCN(C)C(=O)c1ccc(S(=O)(=O)n2cnc(C3CC3)n2)cc1 was tested, and the Activity [2] was “Active”.
In the case of C#CCN(C)C(=O)c1cccc(S(=O)(=O)n2cnc(C3CC3)n2)c1, the Activity [20] was “Active” and the Activity [21] was “Active”.
For COc1ccccc1N1CCN(C(=O)c2cccc(S(=O)(=O)n3cnc(C4CC4)n3)c2)CC1, the pIC50 [1] was 5.04.
In the case of COc1ccccc1N1CCN(C(=O)c2ccc(S(=O)(=O)n3cnc(-c4cccc(F)c4)n3)cc2)CC1, the pIC50 [1] was 6.21.
COc1ccccc1N1CCN(C(=O)c2ccc(S(=O)(=O)n3cnc(-c4ccc(OC(F)(F)F)cc4)n3)cc2)CC1 was tested, and the pIC50 [1] was 5.96.
With C#CCN(C)C(=O)c1ccc(S(=O)(=O)n2cncn2)cc1 the Activity [20] was “Active” and the Activity [21] was “Active”.
With COc1ccccc1NC1CCN(C(=O)c2ccc(S(=O)(=O)n3cncn3)cc2)CC1 the pIC50 [1] was 5.33.
COc1ccc(-c2ncn(S(=O)(=O)c3ccc(C(=O)N4CCN(c5ccccc5OC)CC4)cc3)n2)cc1 gave a pIC50 [1] of 6.30.
In the case of COc1ccccc1N1CCN(C(=O)c2ccc(S(=O)(=O)n3cnc(-c4ccccc4)n3)cc2)CC1, the pIC50 [1] was 5.57.
For O=C(c1ccc(S(=O)(=O)n2cncn2)cc1)N1CCN(c2ccc(I)cc2)CC1, the pIC50 [1] was 6.48.
Compound COc1ccccc1N1CCN(C(=O)c2ccc(S(=O)(=O)n3cnc(-c4ccco4)n3)cc2)CC1 has a pIC50 [1] of 5.30.
COc1ccccc1N1CCN(C(=O)c2cccc(S(=O)(=O)n3cnc(-c4cccnc4)n3)c2)CC1 was tested, and the pIC50 [1] was under 5.00.
COc1ccccc1N1CCN(C(=O)c2ccc(S(=O)(=O)n3cnc(-c4cccnc4)n3)cc2)CC1 gave a pIC50 [1] of 5.15.
For COc1ccccc1N1CCN(C(=O)c2ccc(S(=O)(=O)n3cnc(-c4ccc(F)cc4)n3)cc2)CC1, the pIC50 [1] was 6.29.
Compound COc1ccccc1N1CCN(C(=O)c2ccc(S(=O)(=O)n3cnc(-c4ccc(-c5ccccc5)cc4)n3)cc2)CC1 has a pIC50 [1] of under 5.00.
Compound COc1ccccc1N1CCN(C(=O)c2ccc(S(=O)(=O)n3cnc(C4CCCC4)n3)cc2)CC1 has a pIC50 [1] of 7.39.
C#CCNC(=O)c1cccc(S(=O)(=O)n2cncn2)c1 was tested, and the Activity [2] was “Active”.
In the case of C#CCNC(=O)c1ccc(S(=O)(=O)n2cnc(C3CCCCC3)n2)cc1, the Activity [2] was “Active”.
